# Source: paper PMC8954382, “A Sub-Micromolar MraYAA Inhibitor with an Aminoribosyl Uridine Structure and a (S,S)-Tartaric Diamide: Synthesis, Biological Evaluation and Molecular Modeling” (Molecules, 2022)
# Read-outs that look alike come from different tables or passages of the source.
# Key:
# [1] = biological target: T1, MraY transferase purified from Aquifex aeolicus (MraYAA) (Aquifex aeolicus, UniProt O66465); experiment: MraYAA transferase inhibition, fluorescence assay with dansylated UDP-MurNAc-pentapeptide; assay type: biochemical; settings: for IC50: inhibition of MraYAA transferase activity, triplicate, repeated at least twice
# T1 construct: His tag; made in house
# Description: The inhibitory activity of the synthesized compounds 2, (S,S)-3a, (R,R)-3b, 4 and 5 was evaluated on MraY transferase purified from Aquifex aeolicus (MraYAA), which was prepared as previously described by Chung et al.. Their activity was compared to the inhibitory activity of the unprotected amino precursor 12, urea-containing inhibitor 13 and C- and N-triazole-containing inhibitors 14 and 15 (Figure 4) that we previously synthesized (Table 1). Commercially available tunicamycin from Streptomyces sp. was used as a positive control in the test.
# The inhibitory activity of the synthesized compounds 1–5 was determined as described in Reference. The compounds were evaluated on His-tagged MraY transferase purified from Aquifex aeolicus (MraYAA) prepared as previously described by Chung et al.. The assays were performed as previously described by Stachyra et al. in 96-well plates in a total reaction mixture of 100 µL containing 100 mM of Tris-HCl (pH 7.5), 40 mM MgCl2, 150 µM C55-P, 150 mM NaCl, 25 µM dansylated UDP-MurNAc-pentapeptide and 0.4% of n-dodecyl β-D-maltoside. The reaction was initiated by the addition of pure MraYAA enzyme (10 µL, 0.036 mg/mL). Briefly, MraY catalyzed the formation of lipid I, displaying an apolar environment from polar and hydrosoluble dansylated-UDP-MurNAc-pentapeptide. This modification in the environment of the dansyl probe was accompanied by an enhancement (3.4 times) of fluorescence, as well as a shift of the maximum of fluorescence emission spectrum from 560 nm for the dansylated nucleotidic substrate to 530 nm for the dansylated lipid product (see Figure 2 in Stachyra et al.. This property was exploited to develop an HTS assay and to assess MraY activity by using an Enspire fluorescence microplate reader (Perkin-Elmer, Courtaboeuf, France). The fluorescence measurement was read every two minutes at 37 °C, under shaking during 60 min; the excitation wavelength and the emission wavelength were 340 nm and 530 nm, respectively. Experiments were performed in triplicate, and each experiment was repeated at least twice. In each case, the fluorescence of a control sample without enzyme was subtracted, initial velocity was calculated and percent inhibition was deduced. IC50 values were determined from plots of the percent inhibition versus the inhibitor concentration, and data were processed on Excel software.
# [2] = tested on: Citrobacter freundii ATCC 8090; experiment: Antibacterial activity, MIC by broth microdilution; assay type: cell-based; settings: Gram -
# Description: (§1) Even if our goal was to improve the MraY inhibitory activity of the reference urea 13, and that was successfully achieved, the antibacterial activity of MraY inhibitors 2–5 was also evaluated against several bacterial strains. Gram-negative (E. coli ATCC 8730, C. freundii ATCC8090 and P. aeruginosa ATCC 27853) and Gram-positive pathogenic bacterial strains (S. aureus ATCC 25923 and E. faecium ATCC 19434), including a methicillin resistant strain (S. aureus MRSA ATCC 43300), were selected as representative of pathogen bacterial diversity. Piperacillin and vancomycin were used as positive controls in the tests. […] Therefore, further optimization of the lipophilic side chain is still required to increase the antibacterial activity by modulating the lipophilicity of the molecule.
# (§2) Tests were made according to the procedure described in Reference, following EUCAST (European Committee on Antimicrobial Susceptibility testing)/CLSI (Clinical and Laboratory Standard Institute) recommended procedure. This microtitration plate size allows direct detection of bacterial growth in a relatively small volume, without the use of a spectrophotometer or the addition of dyes. Molecules were solubilized in 100% DMSO (cell culture grade) at 20.48 mg/mL concentration and 40-fold diluted in MHB to reduce DMSO concentration in the antibacterial test, just before utilization. The MHB-diluted solutions were then serially two-fold diluted in MHB, at final concentration ranging from 128 to 1 µg/mL. Bacterial inoculums were prepared for each strain, resuspending isolated colonies from 18 h cultured plates. Equivalents of 0.5 Mac Farland turbidity standard (approximately 1.108 CFU/mL) were prepared in saline solution (NaCl […]) and diluted 200-fold in MBH. The bacterial suspensions were then added to microplates containing the diluted molecules. Microtitration plates were incubated overnight at 37 °C. MICs were determined as the lowest dilution of product showing no visual turbidity.
# [3] = tested on: Enterococcus faecium ATCC 19434; experiment: Antibacterial activity, MIC by broth microdilution; assay type: cell-based; settings: Gram +
# Description: as §1, §2
# [4] = tested on: Escherichia coli ATCC 8730; experiment: Antibacterial activity, MIC by broth microdilution; assay type: cell-based; settings: Gram -
# Description: as §1, §2
# [5] = tested on: Pseudomonas aeruginosa ATCC 27853; experiment: Antibacterial activity, MIC by broth microdilution; assay type: cell-based; settings: Gram -
# Description: as §1, §2
# [6] = tested on: Staphylococcus aureus ATCC 25923; experiment: Antibacterial activity, MIC by broth microdilution; assay type: cell-based; settings: Gram +
# Description: as §1, §2
# [7] = tested on: Staphylococcus aureus MRSA ATCC 43300; experiment: Antibacterial activity, MIC by broth microdilution; assay type: cell-based; settings: Gram +
# Description: as §1, §2
# [8] = tested on: MraY; settings: Table 2, known inhibitor, cited from earlier work
# [9] = tested on: six selected bacterial species; design: method as in PMID 34115086; settings: previously reported; ref [32]; cited from earlier work
# T1 sequence (O66465 whole entry): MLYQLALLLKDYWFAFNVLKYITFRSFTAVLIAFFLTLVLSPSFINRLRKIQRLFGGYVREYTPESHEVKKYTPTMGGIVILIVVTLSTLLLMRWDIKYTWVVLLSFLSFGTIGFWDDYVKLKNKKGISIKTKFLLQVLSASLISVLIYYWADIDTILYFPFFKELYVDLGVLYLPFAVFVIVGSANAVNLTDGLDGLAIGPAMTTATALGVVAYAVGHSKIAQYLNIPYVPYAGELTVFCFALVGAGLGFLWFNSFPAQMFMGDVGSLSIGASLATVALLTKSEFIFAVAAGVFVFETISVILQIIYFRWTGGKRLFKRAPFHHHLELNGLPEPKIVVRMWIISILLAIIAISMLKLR
Molecule,IC50 [1],CMI [2],CMI [3],CMI [4],CMI [5],CMI [6],CMI [7],IC50 ([8]; ref [31]),antibacterial activity [9],gain in activity (factor) as compared to the reference compound 13 with an urea linker ([1]; ratio of MraYAA IC50 values),IC50 ([8]; ref [41])
"CCCCCCCCCCNC(=O)C(O)C(O)C(=O)NCC(OC1OC(CN)C(O)C1O)C1OC(n2ccc(=O)[nH]c2=O)C(O)C1O [(R,R)-3b]",1.38 ± 0.05 µM,> 128 µg/mL,> 128 µg/mL,> 128 µg/mL,> 128 µg/mL,128 µg/mL,> 128 µg/mL,,,,
CCCCCCCCCCCCCCCCC[C@H]1CN(C)[C@@H]([C@H](O[C@@H]2O[C@H](CN)[C@@H](O)[C@H]2O)[C@H]2O[C@@H](n3ccc(=O)[nH]c3=O)[C@H](O)[C@@H]2O)C(=O)N(C)[C@@H]1C(=O)O [Carbacaprazamycin],,,,,,,,0.104 µM,,,
CCCCCCCCCCNc1c(NCC(OC2OC(CN)C(O)C2O)C2OC(n3ccc(=O)[nH]c3=O)C(O)C2O)c(=O)c1=O (stereo not drawn) [Compound 2],17.97 ± 0.04 µM,> 128 µg/mL,> 128 µg/mL,> 128 µg/mL,> 128 µg/mL,> 128 µg/mL,> 128 µg/mL,,,,
CCCCCCCCCCC(=O)NCC(OC1OC(CN)C(O)C1O)C1OC(n2ccc(=O)[nH]c2=O)C(O)C1O (stereo not drawn) [Compound 4],6.49 ± 0.21 µM,> 128 µg/mL,128 µg/mL,> 128 µg/mL,> 128 µg/mL,128 µg/mL,128 µg/mL,,,,
CCCCCCCCCCS(=O)(=O)NCC(OC1OC(CN)C(O)C1O)C1OC(n2ccc(=O)[nH]c2=O)C(O)C1O (stereo not drawn) [Compound 5],2.91 ± 0.13 µM,> 128 µg/mL,> 128 µg/mL,> 128 µg/mL,> 128 µg/mL,> 128 µg/mL,> 128 µg/mL,,,,
"NC[C@H](O[C@@H]1O[C@H](CN)[C@@H](O)[C@H]1O)[C@H]1O[C@@H](n2ccc(=O)[nH]c2=O)[C@H](O)[C@@H]1O [Compound 12, reference compound]",50.3 ± 3.27 µM,,,,,,,,,,
"CCCCCCCCCCNC(=O)NC[C@H](O[C@@H]1O[C@H](CN)[C@@H](O)[C@H]1O)[C@H]1O[C@@H](n2ccc(=O)[nH]c2=O)[C@H](O)[C@@H]1O [Compound 13, reference compound]",1.93 ± 0.13 µM,> 128 µg/mL,> 128 µg/mL,> 128 µg/mL,> 128 µg/mL,> 128 µg/mL,> 128 µg/mL,,does not display antibacterial activity,,
"CCCCCCCCCCNC(=O)C(O)C(O)C(=O)NCC(OC1OC(CN)C(O)C1O)C1OC(n2ccc(=O)[nH]c2=O)C(O)C1O [Compound (S,S)-3a]",0.37 ± 0.01 µM,> 128 µg/mL,> 128 µg/mL,> 128 µg/mL,> 128 µg/mL,128 µg/mL,> 128 µg/mL,,,5,
CC(C)C[C@H](NC(=O)[C@@H](NC(=O)N[C@H](C(=O)O)C(C)C)[C@@H]1CCN=C(N)N1)C(=O)NCCCN[C@H](C(=O)O)[C@H](O[C@@H]1O[C@H](CN)[C@@H](O)[C@H]1O)[C@H]1O[C@@H](n2ccc(=O)[nH]c2=O)[C@H](O)[C@@H]1O [Muraymycin D2],,,,,,,,,,,0.046 µM
"CCN1CCN(C(=O)N[C@@H](C(=O)N[C@@H]2C(=O)N3[C@@H]2SC(C)(C)[C@@H]3C(=O)O)c2ccccc2)C(=O)C1=O [Piperacillin, reference compound]",,4 µg/mL,4 µg/mL,4 µg/mL,8 µg/mL,4 µg/mL,> 128 µg/mL,,,,
"CN[C@H](CC(C)C)C(=O)N[C@H]1C(=O)N[C@@H](CC(N)=O)C(=O)N[C@H]2C(=O)N[C@H]3C(=O)N[C@H](C(=O)N[C@H](C(=O)O)c4cc(O)cc(O)c4-c4cc3ccc4O)[C@H](O)c3ccc(c(Cl)c3)Oc3cc2cc(c3O[C@@H]2O[C@H](CO)[C@@H](O)[C@H](O)[C@H]2O[C@H]2C[C@](C)(N)[C@H](O)[C@H](C)O2)Oc2ccc(cc2Cl)[C@H]1O [Vancomycin, reference compound]",,,0.5 µg/mL,,,1 µg/mL,1 µg/mL,,,,
Tunicamycin [reference compound],0.026 µM,,,,,,,,,,
